Like-named read-outs stand apart in the source and are kept apart here.
What was measured:
[1] = test system: SW480 cells; test: MTS cell viability assay, SW480; assay type: cell-based; conditions: Homo sapiens, SW480, 72 h, mean ± SD (n = 3)
Experimental: (§1) MTS Cell Viability Assay. Colorectal cancer cells (SW480 and HCT116), TNBC cells (MDA-MB-231, MDA-MB-468, and BT-20), and lung cancer A549 cells were seeded in 96-well plates at 5×10^3 cells/well, maintained overnight at 37° C., and incubated with the tested compounds at various concentrations. Cell viability was monitored after 72 h using a freshly prepared mixture of 1 part phenazine methosulfate (PMS, Sigma) solution (0.92 mg/mL) and 19 parts 3-(4,5-dimethylthiazol-2-yl)-5-(3-carboxymethoxyphenyl)-2-(4-sulfophenyl)-2H-tetrazolium (MTS, Promega) solution (2 mg/mL). Cells were incubated in 10 μL of this solution at 37° C. for 3 h, and A490 was measured. The effect of each compound is expressed as the concentration required to reduce A490 by 50% (IC50) relative to DMSO-treated cells. Experiments were performed in triplicate.

[2] = test system: HCT116 cells; test: MTS cell viability assay, HCT116; assay type: cell-based; conditions: Homo sapiens, HCT-116; 72 h; mean ± SD (n = 3); Table 5; read-out: MTS cell viability IC50, Wnt hyperactive cancer cells HCT116
Experimental: as §1

[3] = molecular target: T1, β-catenin/Tcf protein-protein interaction (Homo sapiens, UniProt P35222); test: FP competitive inhibition assay; assay type: binding
T1 construct: Wild-type β-catenin (residues 138-781) were cloned into a pET-28b vector; 6×histidine (C); made in house; host or cells: E. coli BL21 DE3
T1 sequence (P35222 138-781): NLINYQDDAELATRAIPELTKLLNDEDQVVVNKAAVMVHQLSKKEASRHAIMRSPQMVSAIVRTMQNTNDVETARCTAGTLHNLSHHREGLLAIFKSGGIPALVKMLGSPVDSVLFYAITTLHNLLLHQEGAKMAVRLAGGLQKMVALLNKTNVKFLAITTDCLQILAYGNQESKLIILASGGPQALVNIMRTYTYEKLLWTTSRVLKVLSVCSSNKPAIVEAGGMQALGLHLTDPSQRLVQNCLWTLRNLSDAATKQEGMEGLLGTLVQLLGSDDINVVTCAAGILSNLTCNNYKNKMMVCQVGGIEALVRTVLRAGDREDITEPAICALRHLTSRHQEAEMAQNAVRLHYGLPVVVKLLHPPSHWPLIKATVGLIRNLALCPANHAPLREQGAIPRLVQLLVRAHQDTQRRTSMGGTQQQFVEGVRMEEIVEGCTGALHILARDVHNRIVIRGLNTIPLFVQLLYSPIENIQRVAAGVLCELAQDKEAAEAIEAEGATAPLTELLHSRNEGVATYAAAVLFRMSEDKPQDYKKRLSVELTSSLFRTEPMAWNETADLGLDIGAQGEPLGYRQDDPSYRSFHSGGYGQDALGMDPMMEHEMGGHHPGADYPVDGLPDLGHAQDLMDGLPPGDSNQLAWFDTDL
Procedure, shortened: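 His-tagged human β-catenin (residues 138-781, E. coli-expressed) at 10 nM with 2.5 nM fluorescein-labeled Tcf4 (7-51) in PBS-type buffer with bovine γ-globulin and 0.01% Triton X-100. Compounds added, 1.5 h at 4 °C, 1% DMSO, before fluorescence polarization read. IC50 by nonlinear fit; Ki derived from IC50.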

[4] = Table 4, read-out: MTS cell viability IC50, Wnt hyperactive SW480 Cells (converted)
[5] = Table 5, read-out: MTS cell viability IC50, Wnt hyperactive cancer cells SW480
[6] = Assay 1, mean ± SD (n = 3), read-out: Ki ± SD, Assay 1
[7] = Assay 2, mean ± SD (n = 3), read-out: Ki ± SD, Assay 2

**Q.** Which IC50 [1, 4] does the source give for `COC(=O)CCn1c(CCc2nc3ccccc3s2)c(CCc2ccc(Cl)cc2)c2cc(C(=O)OC)ccc21` [Compound 43, Methyl 2-(2-(benzo[d]thiazol-2-yl)ethyl)-3-(4-chlorophenethyl)-1-(3-methoxy-3-oxopropyl)-1H-indole-5-carboxylate] here?
**A.** The IC50 was greater than 400 µM.

**Q.** With `O=C(NCc1ccc(Cl)cc1)c1ccc2c(c1)c(CCc1ccc(F)cc1)c(CCc1nc3ccccc3s1)n2CCc1nn[nH]n1` [Compound 45, 1-(2-(2H-tetrazol-5-yl)ethyl)-2-(2-(benzo[d]thiazol-2-yl)ethyl)-N-(4-chlorobenzyl)-3-(4-fluoro-phenethyl)-1H-indole-5-carboxamide] as the compound, how does the IC50 [1, 5] read?
**A.** The IC50 was 14 ± 2.2 µM.

**Q.** What about the IC50 [2] of the same compound?
**A.** Its IC50 is 12 ± 1.9 µM.

**Q.** What about the Ki [3, 6] of the same compound?
**A.** Its Ki is 0.97 ± 0.39 µM.

**Q.** What about the Ki [3, 7] of the same compound?
**A.** Its Ki is 0.7 ± 0.02 µM.

**Q.** With `COc1ccc2sc(CCc3c(CCc4ccc(Cl)cc4)c4cc(C(=O)NCc5ccc(Cl)cc5)ccc4n3CCc3nn[nH]n3)nc2c1` [Compound 48, 1-(2-(2H-tetrazol-5-yl)ethyl)-N-(4-chlorobenzyl)-3-(4-chlorophenethyl)-2-(2-(5-methoxybenzo-[d]thiazol-2-yl)ethyl)-1H-indole-5-carboxamide] as the compound, how does the IC50 [1, 4] read?
**A.** Its IC50 is 9.3 ± 4.9 µM.

**Q.** What about the Ki [3, 6] of the same compound?
**A.** The Ki was 2.4 ± 0.56 µM.

**Q.** What about the Ki [3, 7] of the same compound?
**A.** The Ki was 3.2 ± 0.24 µM.

**Q.** What does the source list for `COc1ccc2sc(CCc3c(CCc4ccc(Cl)cc4)c4cc(C(=O)NCc5ccccc5N(C)C)ccc4n3CCc3nn[nH]n3)nc2c1` [Compound 54, 1-(2-(2H-tetrazol-5-yl)ethyl)-3-(4-chlorophenethyl)-N-(2-(dimethylamino)benzyl)-2-(2-(5-methoxybenzo[d]thiazol-2-yl)ethyl)-1H-indole-5-carboxamide]?
**A.** IC50 [1, 5]: 11 ± 1.5 µM; IC50 [2]: 11 ± 1.7 µM; Ki [3, 6]: 1.9 ± 0.14 µM; Ki [3, 7]: 3 ± 0.24 µM

**Q.** Which IC50 [1, 5] does the source give for `COc1ccc2sc(CCc3c(CCc4ccc(Cl)cc4)c4cc(C(=O)NCc5ccccn5)ccc4n3CCc3nn[nH]n3)nc2c1` [Compound 55, 1-(2-(2H-tetrazol-5-yl)ethyl)-3-(4-chlorophenethyl)-2-(2-(5-methoxybenzo[d]thiazol-2-yl)ethyl)-N-(pyridin-2-ylmethyl)-1H-indole-5-carboxamide] here?
**A.** The IC50 was 13 ± 1.7 µM.

**Q.** And the IC50 [2]?
**A.** The IC50 was 20 ± 2.7 µM.

**Q.** And the Ki [3, 6]?
**A.** The Ki was 2.9 ± 0.5 µM.

**Q.** What about the Ki [3, 7] of the same compound?
**A.** The Ki was 5.1 ± 0.42 µM.

**Q.** Which results are given for `COc1ccc2sc(CCc3c(CCc4ccc(Cl)cc4)c4cc(C(=O)NCc5ccncc5)ccc4n3CCc3nn[nH]n3)nc2c1` [Compound 56, 1-(2-(2H-tetrazol-5-yl)ethyl)-3-(4-chlorophenethyl)-2-(2-(5-methoxybenzo[d]thiazol-2-yl)ethyl)-N-(pyridin-4-ylmethyl)-1H-indole-5-carboxamide]?
**A.** IC50 [1, 5]: 14 ± 1.7 µM; IC50 [2]: 23 ± 2.5 µM; Ki [3, 6]: 4.2 ± 0.43 µM; Ki [3, 7]: 1.9 ± 0.17 µM

**Q.** Which results are given for `COc1ccc2sc(CCc3c(CCc4ccc(Cl)cc4)c4cc(C(=O)NCc5ccncn5)ccc4n3CCc3nn[nH]n3)nc2c1` [Compound 57, 1-(2-(2H-tetrazol-5-yl)ethyl)-3-(4-chlorophenethyl)-2-(2-(5-methoxybenzo[d]thiazol-2-yl)ethyl)-N-(pyrimidin-4-ylmethyl)-1H-indole-5-carboxamide]?
**A.** IC50 [1, 5]: 19 ± 1.6 µM; IC50 [2]: 24 ± 2.8 µM; Ki [3, 6]: 3.6 ± 0.35 µM; Ki [3, 7]: 2.8 ± 0.17 µM

**Q.** Which results are given for `Cc1ccc(CCc2c(-c3csc4ccccc34)n(CCc3nn[nH]n3)c3ccc(C(=O)O)cc23)cc1` [Compound 79, 1-(2-(2H-tetrazol-5-yl)ethyl)-2-(benzo[b]thiophen-3-yl)-3-(4-methylphenethyl)-1H-indole-5-carboxylic acid]?
**A.** Ki [3, 6]: 0.57 ± 0.052 µM; Ki [3, 7]: 0.7 ± 0.06 µM

**Q.** How did the Ki [3, 6] turn out when `Cc1ccc(CCc2c(-c3csc(C(F)F)c3)n(CCc3nn[nH]n3)c3ccc(C(=O)O)cc23)cc1` [Compound 80, 1-(2-(2H-tetrazol-5-yl)ethyl)-2-(5-(difluoromethyl)thiophen-3-yl)-3-(4-methylphenethyl)-1H-indole-5-carboxylic acid] was run?
**A.** Its Ki is 0.92 ± 0.1 µM.

**Q.** And the Ki [3, 7]?
**A.** The Ki was 1.9 ± 0.13 µM.

**Q.** How did the Ki [3, 6] turn out when `Cc1ccc(CCc2c(-c3cc[nH]c3)n(CCc3nn[nH]n3)c3ccc(C(=O)O)cc23)cc1` [Compound 81, 1-(2-(2H-tetrazol-5-yl)ethyl)-3-(4-methylphenethyl)-2-(1H-pyrrol-3-yl)-1H-indole-5-carboxylic acid] was run?
**A.** Its Ki is 1.2 ± 0.28 µM.

**Q.** What about the Ki [3, 7] of the same compound?
**A.** The Ki was 3.2 ± 0.79 µM.

**Q.** What does the source list for `Cc1ccc(CCc2c(-c3cccnc3)n(CCc3nn[nH]n3)c3ccc(C(=O)O)cc23)cc1` [Compound 82, 1-(2-(2H-tetrazol-5-yl)ethyl)-3-(4-methylphenethyl)-2-(pyridin-3-yl)-1H-indole-5-carboxylic acid]?
**A.** Ki [3, 6]: 8.4 ± 0.58 µM; Ki [3, 7]: 30 ± 1.9 µM

**Q.** `Cc1ccc(CCc2c(-c3ccncc3)n(CCc3nn[nH]n3)c3ccc(C(=O)O)cc23)cc1` [Compound 83, 1-(2-(2H-tetrazol-5-yl)ethyl)-3-(4-methylphenethyl)-2-(pyridin-4-yl)-1H-indole-5-carboxylic acid] was tested. Which Ki [3, 6] did it give?
**A.** The Ki was 20 ± 1.1 µM.

**Q.** Which results are given for `O=C(O)c1ccc2c(c1)c(CCC1CCCCC1)c(-c1ccsc1)n2CCc1nn[nH]n1` [Compound 85, 1-(2-(2H-tetrazol-5-yl)ethyl)-3-(2-cyclohexylethyl)-2-(thiophen-3-yl)-1H-indole-5-carboxylic acid]?
**A.** Ki [3, 6]: 0.81 ± 0.052 µM; Ki [3, 7]: 8.2 ± 0.19 µM; Ki ([3]; Assay 3, mean ± SD (n = 3), read-out: Ki ± SD, Assay 3): 0.52 ± 0.048 µM

**Q.** Which Ki [3, 6] does the source give for `O=C(O)c1ccc2c(c1)c(CCC1CCOCC1)c(-c1ccsc1)n2CCc1nn[nH]n1` [Compound 86, 1-(2-(2H-tetrazol-5-yl)ethyl)-3-(2-(tetrahydro-2H-pyran-4-yl)ethyl)-2-(thiophen-3-yl)-1H-indole-5-carboxylic acid] here?
**A.** The Ki was 1.3 ± 0.4 µM.

**Q.** What about the Ki [3, 7] of the same compound?
**A.** Its Ki is 1.2 ± 0.23 µM.

**Q.** With `O=C(O)c1ccc2c(c1)c(CCc1ccc3c(c1)OCCO3)c(-c1ccsc1)n2CCc1nn[nH]n1` [Compound 87, 1-(2-(2H-tetrazol-5-yl)ethyl)-3-(2-(2,3-dihydrobenzo[b][1,4]dioxin-6-yl)ethyl)-2-(thiophen-3-yl)-1H-indole-5-carboxylic acid] as the compound, how does the Ki [3, 6] read?
**A.** The Ki was 3.4 ± 0.86 µM.

**Q.** What about the Ki [3, 7] of the same compound?
**A.** The Ki was 1.3 ± 0.066 µM.

**Q.** Which Ki [3, 6] does the source give for `Cc1ccc(CCc2c(-c3ccsc3)n(CCc3nn[nH]n3)c3ccc(C(N)=O)cc23)cc1` [Compound 88, 1-(2-(2H-tetrazol-5-yl)ethyl)-3-(4-methylphenethyl)-2-(thiophen-3-yl)-1H-indole-5-carboxamide] here?
**A.** Its Ki is 16 ± 0.71 µM.

**Q.** And the Ki [3, 7]?
**A.** The Ki was roughly 24 µM.

**Q.** With `CNC(=O)c1ccc2c(c1)c(CCc1ccc(C)cc1)c(-c1ccsc1)n2CCc1nn[nH]n1` [Compound 89, 1-(2-(2H-tetrazol-5-yl)ethyl)-N-methyl-3-(4-methylphenethyl)-2-(thiophen-3-yl)-1H-indole-5-carboxamide] as the compound, how does the Ki [3, 6] read?
**A.** Its Ki is greater than 24 µM.

**Q.** `CONC(=O)c1ccc2c(c1)c(CCc1ccc(C)cc1)c(-c1ccsc1)n2CCc1nn[nH]n1` [Compound 91, 1-(2-(2H-tetrazol-5-yl)ethyl)-N-methoxy-3-(4-methylphenethyl)-2-(thiophen-3-yl)-1H-indole-5-carboxamide] was tested. Which Ki [3, 6] did it give?
**A.** The Ki was 31 ± 5.8 µM.

**Q.** With `O=C(NCc1ccon1)c1ccc2c(c1)c(CCC1CCCCC1)c(-c1ccsc1)n2CCc1nn[nH]n1` [Compound 95, 1-(2-(2H-tetrazol-5-yl)ethyl)-3-(2-cyclohexylethyl)-N-(isoxazol-3-ylmethyl)-2-(thiophen-3-yl)-1H-indole-5-carboxamide] as the compound, how does the Ki [3, 6] read?
**A.** The Ki was 3.1 ± 0.068 µM.

**Q.** And the Ki [3, 7]?
**A.** The Ki was 15 ± 2.8 µM.

**Q.** Which Ki [3, 6] does the source give for `O=C(NCc1ccon1)c1ccc2c(c1)c(CCC1CCOCC1)c(-c1ccsc1)n2CCc1nn[nH]n1` [Compound 96, 1-(2-(2H-tetrazol-5-yl)ethyl)-N-(isoxazol-3-ylmethyl)-3-(2-(tetrahydro-2H-pyran-4-yl)ethyl)-2-(thiophen-3-yl)-1H-indole-5-carboxamide] here?
**A.** The Ki was greater than 25 µM.

**Q.** What about the Ki [3, 7] of the same compound?
**A.** Its Ki is greater than 25 µM.

**Q.** For `Cc1ccc(CCc2c(-c3cn[nH]c3)n(CCc3nn[nH]n3)c3ccc(C(=O)NCc4ccon4)cc23)cc1` [Compound 97, 1-(2-(2H-tetrazol-5-yl)ethyl)-N-(isoxazol-3-ylmethyl)-3-(4-methylphenethyl)-2-(1H-pyrazol-4-yl)-1H-indole-5-carboxamide], which Ki [3, 6] is on record?
**A.** Its Ki is 17 ± 1.6 µM.

Source: US11530186B2, “Inhibitors for the β-catenin / T-cell factor protein-protein interaction” (H. LEE MOFFITT CANCER CENTER AND RESEARCH INSTITUTE, INC., priority 2018, dated 2022)
